Results reported in patent publication US8178530B2, “Imidazolopyrazine compounds useful for the treatment of degenerative and inflammatory diseases” (Janssen Pharmaceutica NV, priority 2006, dated 2012).

Test system: TNFα release by human PBMCs
Assay: Cytokine release by LPS-stimulated human PBMCs (TNFα ELISA)
Assay type: cell-based
Settings: PBMC, LPS 1 μg/mL, 24 hr
Procedure: Human peripheral blood mononuclear cells (PBMCs) are isolated from “buffy coats” prepared from the blood of healthy volunteers, isolated essentially according to method of Bøyum (1984). In brief, buffy coat is diluted 1:1 with 1×PBS (Gibco) and 30 mL is carefully put on top of 20 mL Lymphoprep™ (Lucron Bioproducts) in 50 mL Falcon tubes. After centrifugation (35 min, 400 g, 18° C.) the mononuclear cells are collected from the white interphase and washed 3 times with 1×PBS by resuspending and centrifugation (10 min, 200 g). Isolated PBMCs are finally resuspended in RPMI 1640 (Cat. No. 21875, Gibco) that is supplemented with 10% heat-inactivated FBS (Hyclone).
For the assay PBMCs are seeded at 2.5E6 cells/mL in 160 μL in 96-well plates (Nunc). Serial dilution of the test compounds are made first in DMSO (Sigma) and then diluted 50-fold in M199 medium (Gibco) containing 1% heat-inactivated FBS. Compounds are further 1/10 diluted in the assay plates to obtain final DMSO concentration of 0.2%. Cells are preincubated with the compounds for 1 hr at 37° C., 5% CO2. Then, cells are stimulated with LPS (Escherichia coli serotype 026:B6, Cat. No. L2654, Sigma) that is added in a volume of 20 μL to a final concentration of 1 μg/mL and cells are further cultured for 24 hr. The plates are centrifuged and the supernatant is collected and stored at −80° C. until analysis of appropriate dilutions in ELISAs.
The following 384-well chemiluminescent ELISA protocol was developed to measure TNFα levels in the supernatant: White Lumitrac 600 384-well plates (Greiner) are coated with (40 μL/well) anti-TNFα capture antibody (Cat. No. 551220, BD Pharmingen) that is diluted to 1 μg/mL in 1×PBS (Gibco). After overnight incubation at 4° C., plates are washed with 1×PBS (80 g NaCl, 2 g KCl (Sigma), 11.5 g Na2HPO4.7H2O and 2 g KH2PO4 in 10 L milliQ; pH 7.4) and blocked with 100 μL/well buffer B (1×PBS containing 1% BSA (Sigma), 5% sucrose (Sigma) and 0.05% NaN3 (Sigma)). After 4 hr incubation at RT, blocking buffer is removed and plates are washed once with PBST (1×PBS with 0.05% Tween-20 (Sigma)). Then, 40 μL of sample is transferred to the ELISA plates and plates are incubated at 4° C. Next day, plates are washed 3 times (twice with PBST and once with PBS) and 35 μL/well biotinylated anti-TNFα antibody (Cat. No. 554511, BD Pharmingen) diluted first to a concentration of 250 ng/ml in buffer D (1×PBS with 1% BSA) is added. After 2 h of incubation at RT, plates are washed as described above and 35 μL/well of a 1/2000 dilution of streptavidin-HRP conjugate (Cat. No. SNN2004, Biosource) in buffer D is added. After 45 min, plates are washed as described above and incubated for 5 min with 50 μL/well BM Chemiluminescence ELISA Substrate POD (Roche). Readout is performed on the Luminoscan Ascent Luminometer (Labsystems) with an integration time of 100 msec delivering raw data (RLU: relative luminescence units). The following controls are included in the experiments, a maximal signal control, in which the cells are activated by LPS but only the 0.2% DMSO vehicle (and thus no compound) is added. This control indicates the maximal level of TNFα that can be achieved in the test. A minimal signal control is also included in these experiments. Here, cells are not triggered. This control returns the basal TNFα levels produced by the PBMCs. The percent inhibition (PIN) of the TNFα release, achieved by the compounds is then calculated based on the RLU data returned by the ELISA with following formula: 100−[((TNFα level compound X at concentration Y−minimal TNFα levels)/(maximal TNFα levels−minimal TNFα levels))×100]. Where compounds are tested at 8 concentrations (1/3 serial dilution), EC50-values can be calculated by curve fitting of the means of the PIN data achieved for a compound at each test concentration. […]

Structure (SMILES)	EC50
C[C@@H]1CN(c2ccc(Nc3ncc(-c4ccc(C(N)=O)cc4)n4ccnc34)cc2)C[C@H](C)N1C [Compound 155]	> 1000 nM
NC(=O)c1ccc(-c2cnc(Nc3ccc(N4CCN(CCO)CC4)cc3)c3nccn23)cc1 [Compound 156]	> 1000 nM
NC(=O)c1cnc(-c2cnc(Nc3ccc(N4CCOCC4)cc3)c3nccn23)s1 [Compound 158, 2-[8-(4-Morpholin-4-yl-phenylamino)-imidazo[1,2-a]pyrazin-5-yl]-thiazole-5-carboxylic acid amide]	101 to 500 nM
CN1CCC(COc2ccc(Nc3ncc(-c4ccc(C(N)=O)c(F)c4)n4ccnc34)cc2)CC1 [Compound 159, 2-Fluoro-4-{8-[4-(1-methyl-piperidin-4-ylmethoxy)-phenylamino]-imidazo[1,2-a]pyrazin-5-yl}-benzamide]	> 1000 nM
c1cn2c(-c3cn[nH]c3C3CC3)cnc(Nc3ccc(N4CCOCC4)cc3)c2n1 [Compound 160, [5-(5-Cyclopropyl-1H-pyrazol-4-yl)-imidazo[1,2-a]pyrazin-8-yl]-(4-morpholin-4-yl-phenyl)-amine]	> 1000 nM
c1cn2c(-c3c[nH]cn3)cnc(Nc3ccc(N4CCOCC4)cc3)c2n1 [Compound 163]	> 1000 nM
NC(=O)c1c(F)cc(-c2cnc(Nc3ccc(N4CCOCC4)cc3)c3nccn23)cc1F [Compound 165]	> 1000 nM
CN(C)Cc1cn(-c2ccc(Nc3ncc(-c4ccc(C(N)=O)cc4)n4ccnc34)cc2)nn1 [Compound 166, 4-{8-[4-(4-Dimethylaminomethyl-[1,2,3]triazol-1-yl)-phenylamino]-imidazo[1,2-a]pyrazin-5-yl}-benzamide]	> 1000 nM
NC(=O)c1ccc(-c2cnc(Nc3ccc(-n4ccnc4)cc3)c3nccn23)cc1 [Compound 167]	1 to 100 nM
c1cn(-c2ccc(Nc3ncc(-c4cn[nH]c4)n4ccnc34)cc2)cn1 [Compound 168, (4-Imidazol-1-yl-phenyl)-[5-(1H-pyrazol-4-yl)-imidazo[1,2-a]pyrazin-8-yl]-amine]	> 1000 nM
Cn1nnc(-c2ccc(Nc3ncc(-c4cn[nH]c4)n4ccnc34)cc2)n1 [Compound 169, [4-(2-Methyl-2H-tetrazol-5-yl)-phenyl]-[5-(1H-pyrazol-4-yl)-imidazo[1,2-a]pyrazin-8-yl]-amine]	> 1000 nM
CN1CCN(c2ccc(Nc3ncc(-c4ccc(C(N)=O)cc4)n4ccnc34)cc2F)CC1 [Compound 171, 4-{8-[3-Fluoro-4-(4-methyl-piperazin-1-yl)-phenylamino]-imidazo[1,2-a]pyrazin-5-yl}-benzamide]	> 1000 nM
NC(=O)c1ncc(-c2cnc(Nc3ccc(N4CCOCC4)cc3)c3nccn23)s1 [Compound 173, 5-[8-(4-Morpholin-4-yl-phenylamino)-imidazo[1,2-a]pyrazin-5-yl]-thiazole-2-carboxylic acid amide]	> 1000 nM
Cc1[nH]ncc1-c1cnc(Nc2ccc(N3CCOCC3)cc2)c2nccn12 [Compound 176]	> 1000 nM
C[C@@H]1CN(c2ccc(Nc3ncc(-c4cc(F)c(C(N)=O)c(F)c4)n4ccnc34)cc2)[C@@H](C)CN1C [Compound 181]	> 1000 nM
C[C@@H]1CN(c2ccc(Nc3ncc(-c4csc(C(N)=O)c4)n4ccnc34)cc2)[C@@H](C)CN1C [Compound 186]	> 1000 nM
C[C@@H]1CN(c2ccc(Nc3ncc(-c4cc(C(N)=O)co4)n4ccnc34)cc2)[C@@H](C)CN1C [Compound 187]	> 1000 nM
Cc1oc(-c2cnc(Nc3ccc(N4CCOCC4)cc3)c3nccn23)cc1C(N)=O [Compound 188]	> 1000 nM
CC(C)N1CCN(c2ccc(Nc3ncc(-c4cc(F)c(C(N)=O)c(F)c4)n4ccnc34)cc2)CC1 [Compound 193]	> 1000 nM
O=C1NCc2cc(-c3cnc(Nc4cccnc4)c4nccn34)ccc21 [Compound 197]	> 1000 nM
O=C1NCc2cc(-c3cnc(Nc4ccc(N5CCOCC5)cc4)c4nccn34)sc21 [Compound 198, 2-[8-(4-Morpholin-4-yl-phenylamino)-imidazo[1,2-a]pyrazin-5-yl]-4,5-dihydro-thieno[2,3-c]pyrrol-6-one]	> 1000 nM
CC(C)N1CCN(c2ccc(Nc3ncc(-c4coc(C(N)=O)c4)n4ccnc34)cc2)CC1 [Compound 204, 4-{8-[4-(4-Isopropyl-piperazin-1-yl)-phenylamino]-imidazo[1,2-a]pyrazin-5-yl}-furan-2-carboxylic acid amide]	> 1000 nM
CC(C)N1CCN(c2ccc(Nc3ncc(-c4ccc5c(c4)CNC5=O)n4ccnc34)cc2)CC1 [Compound 205, 5-{8-[4-(4-Isopropyl-piperazin-1-yl)-phenylamino]-imidazo[1,2-a]pyrazin-5-yl}-2,3-dihydro-isoindol-1-one]	> 1000 nM
CC(C)N1CCN(c2ccc(Nc3ncc(-c4ccc5c(c4)CNC5=O)n4ccnc34)cn2)CC1 [Compound 210, 5-{8-[6-(4-Isopropyl-piperazin-1-yl)-pyridin-3-ylamino]-imidazo[1,2-a]pyrazin-5-yl}-2,3-dihydro-isoindol-1-one]	> 1000 nM
CN(C)Cc1cc(Nc2ncc(-c3cn[nH]c3)n3ccnc23)ccc1N1CCOCC1 [Compound 218, (3-Dimethylaminomethyl-4-morpholin-4-yl-phenyl)-[5-(1H-pyrazol-4-yl)-imidazo[1,2-a]pyrazin-8-yl]-amine]	> 1000 nM
